# Measured values as given in article PMC7529758, “Over-activation of a nonessential bacterial protease DegP as an antibiotic strategy” (Communications Biology, 2020).
# *1 amine or outer side, *2 acyl side, *3 side chain or, on linkers, in order; H or OH if unused. Where a SMILES comes first, the peptide text is derived from it. Bridges are numbered along the chain shown (N, C = ends). Roman numbers before positions name the chains, in order. Where no end group is shown, it is not given here. The star is where a group is joined. TBMB = c1c(C[*:1])cc(C[*:3])cc1C[*:2]; mXylylene = c1cc(C[*:1])cc(C[*:2])c1; Bn = c1ccc(C*)cc1
# B1: TMB_CKYRKL (peptide)
# peptide: CKYRKL
# modifications: also: three arms joined via TMB (trimer), linker at 1 via TMB, other end not in the chain
# B2: MMB_CYYKI (peptide)
# peptide: CYYKI
# modifications: not fully specified (residue 1); printed as MMB_CYYKI
# notes: also called compound with one CYYKI arm; one-arm compound; source: synthetic peptide (SPPS), reacted with benzyl bromide
# B3: DegP^S210A (enzyme, E. coli, UniProt P0C0V0 27-474, looked up)
# chain: AETSSATTAQQMPSLAPMLEKVMPSVVSINVEGSTTVNTPRMPRNFQQFFGDDSPFCQEGSPFQSSPFCQGGQGGNGGGQQQKFMALGSGVIIDADKGYVVTNNHVVDNATVIKVQLSDGRKFDAKMVGKDPRSDIALIQIQNPKNLTAIKMADSDALRVGDYTVAIGNPFGLGETVTSGIVSALGRSGLNAENYENFIQTDAAINRGNAGGALVNLNGELIGINTAILAPDGGNIGIGFAIPSNMVKNLTSQMVEYGQVKRGELGIMGTELNSELAKAMKVDAQRGAFVSQVLPNSSAAKAGIKAGDVITSLNGKPISSFAALRAQVGTMPVGSKLTLGLLRDGKQVNVNLELQQSSQNQVDSSSIFNGIEGAEMSNKGKDQGVVVNNVKTGTPAAQIGLKKGDVIIGANQQAVKNIAELRKVLDSKPSVLALNIQRGDSTIYLLMQ
# notes: periplasmic protease DegP (HtrA family) of E. coli, active-site mutant S210A; In the crystals it resembles the dodecameric cage of 3OTP (two trimers in the asymmetric unit); also called DegP active-site mutant
# Key:
# DegP^S210A [1] = target: T1, DegP^S210A (Escherichia coli, UniProt P0C0V0, C83S/C95S/N322C/S236A); assay: FRET assay of DegP cage assembly; assay type: biochemical
# T1 construct: pET22b-degP(full length; C57S/C69S/N296C/S210A)_6His; 6His (C); made in house; host or cells: E. coli (inferred from the pET plasmid)
# T1 sequence (P0C0V0 27-474 C83S/C95S/S236A/N322C): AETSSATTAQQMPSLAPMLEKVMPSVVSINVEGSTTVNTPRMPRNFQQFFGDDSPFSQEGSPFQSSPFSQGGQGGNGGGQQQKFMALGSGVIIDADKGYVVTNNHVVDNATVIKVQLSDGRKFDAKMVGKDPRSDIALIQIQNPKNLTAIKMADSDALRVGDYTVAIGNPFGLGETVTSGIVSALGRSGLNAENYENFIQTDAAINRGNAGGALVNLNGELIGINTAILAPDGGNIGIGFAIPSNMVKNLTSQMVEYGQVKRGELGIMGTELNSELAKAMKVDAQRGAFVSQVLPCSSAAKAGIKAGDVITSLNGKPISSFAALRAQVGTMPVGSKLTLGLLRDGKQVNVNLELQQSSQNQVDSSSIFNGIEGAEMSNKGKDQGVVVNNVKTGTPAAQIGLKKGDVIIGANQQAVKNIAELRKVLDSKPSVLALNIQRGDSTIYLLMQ
# Experimental: Fluorescence resonance energy transfer (FRET) assay was performed as previously described[14],[22]. Equimolar amounts of fluorescence donor- and acceptor-labeled DegP^S210A (total 0.1, 1 or 3 μM) was mixed in a buffer containing 50 mM sodium phosphate (pH 8) and 100 mM NaCl. Two-fold serial dilutions of activators were added to the DegP mixtures. Alexa Fluor 555 C2-maleinide and 647 C2-maleinide (life technologies) were used as fluorescence dyes. Cage assembly of DegP was monitored by increased FRET ratio using the micro-plate reader (excitation 520 nm, emission 570 or 670 nm, Infinite M200pro, Tecan). Assays were performed in triplicates.
# DegP^S210A [2] = target: T2, DegP^S210A (Escherichia coli, UniProt P0C0V0, S236A); assay: Isothermal titration calorimetry; assay type: binding; conditions: ITC; for Kd: Kd (M); for binding stoichiometry N: 298 K, single binding site model, DMB_CYYKI 0–2 molar ratio
# T2 construct: pET22b-degP(full length; S210A)_6His; 6His (C); made in house
# Experimental: ITC experiments were performed using Affinity ITC instruments (TA Instruments, New Castle, DE, USA) at 298 K. DegP^S210A mutant (18.10 μM for 0–2 molar ratio and 109.33 μM for 0–0.4 molar ratio), which were prepared in a buffer containing 5 mM phosphate (pH 8.0) were degassed at 295 K prior to measurements. Using a micro-syringe, 2.5 μL of DMB_CYYKI (300 μM) was added at intervals of 200 s to the DegP solution in the cell with gentle stirring. As for other ligands, 2.5 μL of MMB_CYYKI (453 μM), TMB_CYYKI (218.46 μM) or 18–58 substrate peptide (80 μM) was added at intervals of 200 s to the DegP solution (27.33 μM, 37.45 μM, and 20 μM, respectively). Data were fitted to the single binding site model. In experiments with 0–2 and 0–2.6 molar ratio of DMB_CYYKI and MMB_CYYKI, respectively, the data with 0–0.3 molar ratio were excluded for the fitting.
# E. coli imp4213 = assay: microbe, parasite or virus in culture; assay type: cell-based, Escherichia coli
# Experimental: The susceptibility of E. coli to activators was analyzed by determining the MICs. Two-fold serial dilutions of activators in LB broth were added to bacteria (OD600 = 0.1) in 96-well plates. Plates were incubated with shaking at 30 or 42 °C. After 12 h of incubation, the MIC was defined as the lowest concentration of the activator to inhibit the growth of bacteria by using a micro-plate reader (Absorbance 600 nm, Infinite M200pro, Tecan). The assay was performed in triplicates.
# E.coli imp4213 strain = assay type: cell-based, Escherichia coli; conditions: 20 µg/ml alone; 12 h
# Experimental: Time-kill experiment was performed by counting the viable bacteria at each time point. The E.coli imp4213 strain was cultured with streptomycin overnight and diluted 1:100 in fresh LB broth. When the OD600 value became 0.01, the activator was added at 2x MIC. The sample was incubated with shaking (180 rpm) at 30 °C or 42 °C, and aliquots were taken after 0, 1, 2, 4, 6, 8, 10, or 12 h. These aliquots were serially diluted (ten-fold) and plated on LB agar plates for colony counts. Experiments were performed in triplicates. The kill curves were plotted with the CFU/mL against time.
# Experiments with cells in the stationary phase, however, were performed without dilution of the overnight culture.
# DegP^WT (E. coli) = target: T3, DegP^WT (E. coli) (UniProt P0C0V0)
# T3 sequence: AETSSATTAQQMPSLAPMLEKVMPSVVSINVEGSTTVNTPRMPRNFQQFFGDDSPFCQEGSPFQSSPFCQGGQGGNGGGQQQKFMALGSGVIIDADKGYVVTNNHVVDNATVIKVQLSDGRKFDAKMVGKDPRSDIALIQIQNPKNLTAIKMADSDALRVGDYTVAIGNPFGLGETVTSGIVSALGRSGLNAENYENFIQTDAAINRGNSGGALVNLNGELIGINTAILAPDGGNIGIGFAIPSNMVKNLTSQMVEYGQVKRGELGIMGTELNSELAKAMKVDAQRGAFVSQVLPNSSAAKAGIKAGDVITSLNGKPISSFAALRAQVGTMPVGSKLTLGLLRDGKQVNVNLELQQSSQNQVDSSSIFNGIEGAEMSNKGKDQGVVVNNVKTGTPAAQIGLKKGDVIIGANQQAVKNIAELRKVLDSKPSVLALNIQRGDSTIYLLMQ
# DegP^S210A [3] = target: T4, DegP^S210A (E. coli, UniProt P0C0V0 27-474, S210A); assay: ITC
# T4 sequence: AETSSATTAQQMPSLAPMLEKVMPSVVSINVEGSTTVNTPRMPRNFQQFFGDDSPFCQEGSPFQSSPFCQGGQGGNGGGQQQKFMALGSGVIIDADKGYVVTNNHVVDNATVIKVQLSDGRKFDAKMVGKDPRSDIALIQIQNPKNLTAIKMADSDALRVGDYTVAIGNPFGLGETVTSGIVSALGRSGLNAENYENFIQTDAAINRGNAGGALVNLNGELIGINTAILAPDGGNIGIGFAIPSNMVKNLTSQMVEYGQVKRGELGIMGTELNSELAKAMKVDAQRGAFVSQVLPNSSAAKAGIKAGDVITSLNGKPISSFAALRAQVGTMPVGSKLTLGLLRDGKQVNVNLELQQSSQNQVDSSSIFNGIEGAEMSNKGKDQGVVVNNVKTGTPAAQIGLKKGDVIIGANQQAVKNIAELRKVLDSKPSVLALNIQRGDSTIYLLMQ
# DegP^S210A [4] = target: B3; assay: ITC; 298 K, 5 mM phosphate pH 8.0; compound or peptide injected into DegP^S210A in the cell; single binding site model; for DMB_CYYKI (0–2 molar ratio) and MMB_CYYKI (0–2.6) the data at 0–0.3 molar ratio were excluded from the fit; conditions: both partners purified
# DegP^S210A (E. coli) = DegP^S210A (E. coli) (UniProt P0C0V0); assay: as above
# [5] = target: the molecule itself; assay: crystal structure; DegP^S210A (198 µM) incubated with TMB_CYYKI (297 µM) in 5 mM phosphate pH 8.0 for 1 h at 295 K; hanging drop, PEG3350 10%, tacsimate 0.1 M pH 3.4; molecular replacement with 3OTP
# [6] = model Independent, DMB_CYYKI 0-2 molar ratio
molecule,measurement,setting,value
CC[C@H](C)[C@H](NC(=O)[C@H](CCCCN)NC(=O)[C@H](Cc1ccc(O)cc1)NC(=O)[C@H](Cc1ccc(O)cc1)NC(=O)[C@@H](N)CSCc1cccc(CSC[C@H](N)C(=O)N[C@@H](Cc2ccc(O)cc2)C(=O)N[C@@H](Cc2ccc(O)cc2)C(=O)N[C@@H](CCCCN)C(=O)N[C@H](C(=O)O)[C@@H](C)CC)c1)C(=O)O [DMB_CYYKI] (I: H-CYYKI-OH / II: H-CYYKI-OH; linker I:1-II:1 via mXylylene),EC50,DegP^S210A [1],1100 nM
same,Kd,"DegP^S210A [2]; model Independent, 0-0.4 molar ratio",4.62e-07 M
same,Kd,DegP^S210A [2]; [6],2.39e-07 M
CC[C@H](C)[C@H](NC(=O)[C@H](CCCCN)NC(=O)[C@H](Cc1ccc(O)cc1)NC(=O)[C@H](Cc1ccc(O)cc1)NC(=O)[C@@H](N)CSCc1ccccc1)C(=O)O [MMB_CYYKI] (H-C(Bn)YYKI-OH),EC50,DegP^S210A [1],6800 nM
same,Kd,DegP^S210A [2]; [6],6.32e-07 M
CC[C@H](C)[C@H](NC(=O)[C@H](CCCCN)NC(=O)[C@H](Cc1ccc(O)cc1)NC(=O)[C@H](Cc1ccc(O)cc1)NC(=O)[C@@H](N)CSCc1cc(CSC[C@H](N)C(=O)N[C@@H](Cc2ccc(O)cc2)C(=O)N[C@@H](Cc2ccc(O)cc2)C(=O)N[C@@H](CCCCN)C(=O)N[C@H](C(=O)O)[C@@H](C)CC)cc(CSC[C@H](N)C(=O)N[C@@H](Cc2ccc(O)cc2)C(=O)N[C@@H](Cc2ccc(O)cc2)C(=O)N[C@@H](CCCCN)C(=O)N[C@H](C(=O)O)[C@@H](C)CC)c1)C(=O)O [TMB_CYYKI] (I: H-CYYKI-OH / II: H-CYYKI-OH / III: H-CYYKI-OH; linker I:1-II:1-III:1 via TBMB),EC50,DegP^S210A [1],1700 nM
same,MIC,"E. coli imp4213; imp4213, Fig. 3a and Supplementary Fig. 6b (30 °C and 42 °C), 12 h, LB",80 µM
same,Kd,DegP^S210A [2]; [6],2.35e-07 M
"O=C(N[C@H](CO)[C@H](O)c1ccc([N+](=O)[O-])cc1)C(Cl)Cl [chloramphenicol, reference compound]",number of viable cells,E.coli imp4213 strain,roughly at the same level
same,MIC,"E. coli imp4213; Escherichia coli, IMP4213",2 µg/mL
"CO[C@H]1/C=C/O[C@@]2(C)Oc3c(C)c(O)c4c(O)c(c(/C=N/N5CCN(C)CC5)c(O)c4c3C2=O)NC(=O)/C(C)=C\C=C\[C@H](C)[C@H](O)[C@@H](C)[C@@H](O)[C@@H](C)[C@H](OC(C)=O)[C@@H]1C [rifampicin, reference compound]",MIC,"E. coli imp4213; Escherichia coli, IMP4213",0.008 µg/mL
"CN(C)[C@@H]1C(O)=C(C(N)=O)C(=O)[C@@]2(O)C(O)=C3C(=O)c4c(O)cccc4[C@@](C)(O)[C@H]3C[C@@H]12 [tetracycline, reference compound]",MIC,"E. coli imp4213; Escherichia coli, IMP4213",1 µg/mL
"DNYRGYSLGNWVSAAKFESNFNTQATNRNTDGSTDYGILQI [18–58, reference compound]",binding stoichiometry N,DegP^S210A [2],0.47
same,binding stoichiometry N,DegP^S210A [2]; listed as 18-58,0.473
same,ΔH,DegP^S210A [2]; [6],-18.41 kJ/mol
B1,concentration of compound at maximal activation of reporter peptide (100 µM) cleavage by DegP; activation followed by inhibition at higher concentrations,DegP^WT (E. coli),100 µM
B2,Kd,DegP^S210A [3],630 nM
same,stoichiometry N,DegP^S210A [4],1.11
GTGDNYRGYSLGNWVSAAKFESNFNTQATNRNTDGSTDYGILQI [18–58 substrate peptide],Kd,DegP^S210A [3],100 nM
same,stoichiometry N,DegP^S210A (E. coli),0.47
B3,binding result,[5],binds
